Entries after “also recorded” stand apart in the source; their conditions may differ. Values belong to the molecule of their own block, whether it stands above or below them.
What was measured:
[1] = test system: human aortic smooth muscle cells (HASMCs); experiment: HASMCs proliferation induced by LPS (WST-1); assay type: cell-based
Procedure: First, HASMCs were seeded into 96-well plates.
Chalcone compounds 1 to 29 at different concentrations prepared in Experiment 1 were used to determine the effect of HASMCs proliferation induced by LPS. […] In reference to the drug concentration for cytotoxicity that HASMCs tolerate, the chalcone compounds having the relevant substituents to compound 1 were selected (rather than all chalcone compounds) to compare with each other at the same concentration.

cyclin D1 = experiment: Cyclin D1 protein expression in Ox-LDL treated HASMCs (immunoblotting); assay type: cell-based, human; settings: FIG. 9, PD98059 10^−5 M, compound 1 5 μg/ml, rosiglitazone 5 μg/ml, Ox-LDL 30 μg/ml, 8 hours
Text: (§1) Three independent experiments are made in each group.

cyclin D3 = experiment: Cyclin D3 protein expression in Ox-LDL treated HASMCs (immunoblotting); assay type: cell-based, human; settings: FIG. 9, PD98059 10^−5 M, compound 1 5 μg/ml, rosiglitazone 5 μg/ml, Ox-LDL 30 μg/ml, 8 hours
Text: as §1

Ki-67 protein = Ki-67 protein immunofluorescence in Ox-LDL stimulated HASMCs; assay type: cell-based, human; settings: Ox-LDL 30 μg/ml, 24 hours; for positive stains of Ki-67: compound 1 5 μg/ml or PD98059 10^−5 M
Procedure: For analyzing the mechanisms of compound 1 on inhibiting HASMCs proliferation, the cellular marker for proliferation, Ki-67 protein (also known as MKI67), detected with green fluorescence was the index for HASMCs proliferation. The experiment method was to stimulate HASMCs with Ox-LDL (30 μg/ml) for 24 hours, and simultaneously compound 1 (5 μg/ml) or PD98059 (an ERK 1/2 inhibitor, 10^−5 M) was added. A mouse anti-Ki-67 monoclonal antibody was combined with a DyLight™488-conjugated second antibody to confirm the HASMCs proliferation. DAPI (4′,6-diamidino-2-phenylindole), a fluorescent stain that binds strongly to DNA, was used to localize cell nuclei. Cells were observed under flourescence microscopy. The proliferative cells were quantified by counting the ratio of DyLight™488 (green) fluorescence and DAPI (blue) fluorescence.

PPARγ [2] = experiment: PPARγ mRNA expression in HASMCs (real-time PCR); assay type: cell-based, human
Procedure: The anti-inflammatory effect of compound 1 was determined by the mRNA expressions of IL-1β and IL-6. HASMCs were stimulated with Ox-LDL (30 μg/ml) for 8 hours, and simultaneously treated with (i) PD98059 (5 μg/ml), (ii) rosiglitazone (5 μg/ml), (iii) compound 1 (5 μg/ml) and (iv) rosiglitazone (5 μg/ml) plus compound 1 (5 μg/ml). […] SEQ ID Nos: 1 and 2 were paired in amplification of IL-1β gene, SEQ ID Nos: 3 and 4 were paired in amplification of IL-6 gene, SEQ ID Nos: 5 and 6 were paired in amplification of PPARα gene, SEQ ID Nos: 7 and 8 were paired in amplification of PPARγ gene, and SEQ ID Nos: 9 and 10 were paired in amplification of β-actin gene.
This experiment was performed to investigate the regulatory mechanism of compound 1 on PPARγ based on PPARγ mRNA expression in HASMCs. […]

PPARα = PPARα mRNA expression in HASMCs (real-time PCR); assay type: cell-based, human; settings: FIG. 6(b); with Ox-LDL 30 μg/ml, compound 1 5 μg/ml, 2, 4, 8 and 24 hours
PPARγ [3] = experiment: PPARγ protein expression in HASMCs (immunoblotting); assay type: cell-based, human; settings: FIG. 7(b); compound 1 alone, 0, 1, 2.5 and 5 μg/ml, 4 and 8 hours
Procedure: FIG. 7(a) and FIG. 7(b) respectively are (a) the diagram showing PPARγ mRNA expression and (b) an immunoblotting spectrum showing the PPARγ protein expression of compound 1 (0, 1, 2.5 and 5 μg/ml) on HASMCs for 4 and 8 hours. Data are represented as mean±S.D. in three independent experiments. a: p<0.001, b: p<0.01.
To further confirm whether compound 1 is an inducer of PPARγ for HASMCs, cells were stimulated with compound 1 alone.

[4] = test system: human aortic smooth muscle cells (HASMCs); experiment: HASMCs proliferation and cell viability induced by Ox-LDL (WST-1); settings: FIG. 2; 1, 2.5 and 5 μg/ml, Ox-LDL 30 μg/ml, 24 hours
Procedure: For analyzing whether each genus of flavonoid compounds could inhibit the activity of HASMCs proliferation, the proliferation and cell viability of HASMCs were determined using WST-1 reagent (Roche Applied Science, Penzberg, Germany). WST-1 is a tetrazolium salt that will be cleaved to formazan by mitochondrial dehydrogenases in viable cells. First, HASMCs were seeded into 96-well plates. […] At the end of incubation, WST-1 was added into cell medium and the amount of formazan was measured at a wavelength of 450 nm by an ELISA reader.

SMILES: COc1cccc(/C=C/C(=O)c2ccc(O)cc2O)c1 [compound 6]
- inhibition activity on HASMCs proliferation induced by LPS ([1]; FIG. 11(c), 2 μg/ml): compound 3 rather than compound 6 had inhibition activity

SMILES: O=C(/C=C/c1ccc(OCc2ccccc2)cc1)c1ccc(O)cc1O [compound 3]
- inhibition activity on HASMCs proliferation induced by LPS ([1]; FIG. 11(c), 2 μg/ml): compound 3 rather than compound 6 had inhibition activity

SMILES: O=C(/C=C/c1ccc(O)cc1)c1ccccc1 [compound 29]
- inhibition activity on HASMCs proliferation induced by LPS ([1]; FIG. 11(c), 2 μg/ml): had no inhibition activity

SMILES: CN(CCOc1ccc(CC2SC(=O)NC2=O)cc1)c1ccccn1 (racemic) [rosiglitazone, (RS)-5-[4-(2-[methyl(pyridin-2-yl)amino]ethoxy)benzyl]thiazolidine-2,4-dione]
- cyclin D1 protein expression induced by Ox-LDL (cyclin D1): did not significantly decrease cyclin D1 and D3 protein expression; also recorded: but not PD98059 and rosiglitazone, significantly decreased the cyclin D1 and D3 upregulation
- cyclin D3 protein expression induced by Ox-LDL (cyclin D3): did not significantly decrease cyclin D1 and D3 protein expression; also recorded: but not PD98059 and rosiglitazone, significantly decreased the cyclin D1 and D3 upregulation

SMILES: COc1cccc(/C=C/C(=O)c2ccccc2O)c1 [compound 4]
- inhibition activity on HASMCs proliferation induced by LPS ([1]; FIG. 11(a), 5 μg/ml): both had the similar inhibition activity

SMILES: O=C(/C=C/c1ccccc1)c1ccccc1 [compound 9]
- inhibition activity on HASMCs proliferation induced by LPS ([1]; FIG. 11(c), 2 μg/ml): showed no inhibition activity

SMILES: COc1cccc(/C=C/C(=O)c2ccc(Cl)cc2)c1 [compound 15]
- cytotoxicity to HASMCs ([1]; FIG. 11(c), 2 μg/ml): would lead to death of a part cells

SMILES: COc1cccc(/C=C/C(=O)c2cc(Br)ccc2O)c1 [compound 21]
- cytotoxicity to HASMCs ([1]; FIG. 11(a), 5 μg/ml): would lead to death of a part of cells
- inhibition activity on HASMCs proliferation induced by LPS ([1]; FIG. 11(a), 5 μg/ml): had inhibition activity

- positive stains of Ki-67 (Ki-67 protein): decreased the positive stains of Ki-67
SMILES: COc1ccc(/C=C/C(=O)c2ccccc2O)cc1 [compound 1]
- reduction of proliferative (Ki-67 positive) cells compared to Ox-LDL stimulated HASMCs (Ki-67 protein; FIG. 3, 5 μg/ml): about 10%
- time at which maximum PPARγ mRNA expression was reached (PPARγ [2]; FIG. 6(a), with Ox-LDL 30 μg/ml, compound 1 5 μg/ml): 8 h
- PPARγ mRNA expression (PPARγ [2]; FIG. 6(a), with Ox-LDL 30 μg/ml, compound 1 5 μg/ml, 2, 4, 8 and 24 hours): significantly increased PPARγ mRNA expression post 4 hours administration
- PPARγ mRNA expression (PPARγ [2]; FIG. 7(a), compound 1 alone, 0, 1, 2.5 and 5 μg/ml, 4 and 8 hours): significantly increased PPARγ mRNA and protein expression in dose and time dependent manners
- PPARα mRNA expression (PPARα): neither Ox-LDL nor compound 1 stimulated PPARα mRNA upregulation
- PPARγ protein expression (PPARγ [3]): significantly increased PPARγ mRNA and protein expression in dose and time dependent manners
- cyclin D1 protein expression induced by Ox-LDL (cyclin D1): significantly inhibited cyclin D1 and D3 protein upregulation induced by Ox-LDL
- cyclin D1 protein expression induced by Ox-LDL (cyclin D1; listed as Compound 1): significantly decreased the cyclin D1 and D3 upregulation
- cyclin D3 protein expression induced by Ox-LDL (cyclin D3): significantly inhibited cyclin D1 and D3 protein upregulation induced by Ox-LDL
- cyclin D3 protein expression induced by Ox-LDL (cyclin D3; listed as Compound 1): significantly decreased the cyclin D1 and D3 upregulation
- inhibition activity on HASMCs proliferation induced by LPS ([1]; FIG. 11(a), 5 μg/ml): compound 1 rather than compound 7 has inhibition activity
- inhibition activity on HASMCs proliferation induced by LPS ([1]; FIG. 11(b), 2.5 μg/ml): compound 1 rather than compound 5 had inhibition activity
- cytotoxicity to HASMCs ([1]; FIG. 11(c), 2 μg/ml): non-toxic to cells
- inhibition activity on HASMCs proliferation induced by LPS ([1]; FIG. 11(c), 2 μg/ml): had the best inhibition activity
- cell proliferation compared to Ox-LDL treatment group [4]: significantly decreased in a dose dependent manner

SMILES: COc1ccc(/C=C/C(=O)c2ccccc2I)cc1 [compound 26]
- inhibition activity on HASMCs proliferation induced by LPS ([1]; FIG. 11(b), 2.5 μg/ml): slightly better than that of compounds 26 and 28

SMILES: COc1cccc(/C=C/C(=O)c2ccccc2)c1 [compound 8]
- inhibition activity on HASMCs proliferation induced by LPS ([1]; FIG. 11(c), 2 μg/ml): did not have inhibition activity

SMILES: O=C(/C=C/c1cccc(OCc2ccccc2)c1)c1ccccc1O [compound 11]
- cytotoxicity to HASMCs ([1]; FIG. 11(c), 2 μg/ml): would lead to death of a part cells

SMILES: COc1ccc(/C=C/C(=O)c2ccccc2Cl)cc1 [compound 28]
- inhibition activity on HASMCs proliferation induced by LPS ([1]; FIG. 11(b), 2.5 μg/ml): slightly better than that of compounds 26 and 28

SMILES: O=C(/C=C/c1ccccc1)c1ccc(O)cc1O [compound 2]
- cytotoxicity to HASMCs ([1]; FIG. 11(c), 2 μg/ml): would lead to death of a part cells

- positive stains of Ki-67 (Ki-67 protein): decreased the positive stains of Ki-67
SMILES: COc1cccc(-c2cc(=O)c3ccccc3o2)c1N [PD98059, 2-(2-amino-3-methoxyphenyl)-chromen-4-one]
- cyclin D1 protein expression induced by Ox-LDL (cyclin D1): did not significantly decrease cyclin D1 and D3 protein expression; also recorded: but not PD98059 and rosiglitazone, significantly decreased the cyclin D1 and D3 upregulation
- cyclin D3 protein expression induced by Ox-LDL (cyclin D3): did not significantly decrease cyclin D1 and D3 protein expression; also recorded: but not PD98059 and rosiglitazone, significantly decreased the cyclin D1 and D3 upregulation

SMILES: O=C(/C=C/c1ccccc1)c1ccccc1O [compound 10]
- inhibition activity on HASMCs proliferation induced by LPS ([1]; FIG. 11(b), 2.5 μg/ml): did not have inhibition activity

SMILES: COc1ccc(/C=C/C(=O)c2ccccc2F)cc1 [compound 27]
- inhibition activity on HASMCs proliferation induced by LPS ([1]; FIG. 11(b), 2.5 μg/ml): inhibition activity of compound 1 was better than those of compounds 12 and 27

SMILES: O=C(/C=C/c1ccc(OCc2ccccc2)cc1)c1ccccc1O [compound 25]
- cytotoxicity to HASMCs ([1]; FIG. 11(a), 5 μg/ml): would result in HASMC death

SMILES: COc1ccc(/C=C/C(=O)c2ccc(O)cc2O)cc1 [compound 5]
- inhibition activity on HASMCs proliferation induced by LPS ([1]; FIG. 11(b), 2.5 μg/ml): compound 1 rather than compound 5 had inhibition activity

SMILES: O=C(/C=C/c1cccc(OCc2ccccc2)c1)c1cc(Br)ccc1O [compound 22]
- cytotoxicity to HASMCs ([1]; FIG. 11(c), 2 μg/ml): would lead to death of a part cells

SMILES: O=C(/C=C/c1ccc(OCc2ccccc2)cc1)c1cc(Br)ccc1O [compound 23]
- cytotoxicity to HASMCs ([1]; FIG. 11(a), 5 μg/ml): would lead to death of a part of cells
- inhibition activity on HASMCs proliferation induced by LPS ([1]; FIG. 11(a), 5 μg/ml): had inhibition activity

SMILES: O=C(/C=C/c1ccccc1)c1cc(Br)ccc1O [compound 19]
- cytotoxicity to HASMCs ([1]; FIG. 11(a), 5 μg/ml): would lead to death of a part of cells
- inhibition activity on HASMCs proliferation induced by LPS ([1]; FIG. 11(a), 5 μg/ml): had inhibition activity

SMILES: COc1cccc(/C=C/C(=O)c2cccc(Br)c2)c1 [compound 14]
- inhibition activity on HASMCs proliferation induced by LPS ([1]; FIG. 11(b), 2.5 μg/ml): compound 12 rather than compound 14 had inhibition activity

SMILES: COc1ccc(/C=C/C(=O)c2cc(Br)ccc2O)cc1 [compound 20]
- cytotoxicity to HASMCs ([1]; FIG. 11(a), 5 μg/ml): would lead to death of a part of cells
- inhibition activity on HASMCs proliferation induced by LPS ([1]; FIG. 11(a), 5 μg/ml): had inhibition activity

SMILES: COc1ccc(/C=C/C(=O)c2ccccc2Br)cc1 [compound 12]
- inhibition activity on HASMCs proliferation induced by LPS ([1]; FIG. 11(b), 2.5 μg/ml): compound 12 rather than compound 14 had inhibition activity

SMILES: COc1ccc(/C=C/C(=O)c2ccccc2)cc1 [compound 7]
- inhibition activity on HASMCs proliferation induced by LPS ([1]; FIG. 11(a), 5 μg/ml): compound 1 rather than compound 7 has inhibition activity

— patent publication US10098853B2, “Composition for treating atherosclerosis and a preparation method thereof” (KAOHSIUNG MEDICAL UNIVERSITY, priority 2011, dated 2018)
